# Source: PMC8457056, “Remodeling of the Fibrillation Pathway of α‐Synuclein by Interaction with Antimicrobial Peptide LL‐III” (Chemistry (Weinheim an Der Bergstrasse, Germany), 2021)
# Test system: α‐Syn
# Assay: atomic force microscopy of α-Syn fibrils
# Format: biochemical, human
# Conditions: 20 μM α-Syn, dried on mica, 20 mM sodium acetate, pH 5.0, room temperature
# Experimental: To verify inhibition of α‐Syn fibril formation upon addition of LL‐III, atomic force microscopy (AFM) experiments were carried out. To this end, a 20 μM solution of α‐Syn in the absence and in the presence of LL‐III was dried on a mica surface and AFM pictures were recorded. Under such conditions, liquid droplets could not be detected. In the absence of LL‐III, short fibril‐like structures were observed (Figure S3).
# The lyophilized powders of the labeled and unlabeled LL-III peptide were purchased from GenScript, Germany.
# The sequence of the LL-III peptide is NH2-VNWKKIL GKIIKVVK -CONH2. In th e labeled peptide, the fluorophore 6-carboxyfluorescein (FAM) was covalently attached to the N-terminus of the peptide. […]
# The expression and purification of α-synuclein (α-Syn) was carried out as described before.[1,2] […] A single colony was picked and inoculated into 100 m l LB medium containing 150 μg/m l ampicillin and grown at 37°C with shaking at 250 rpm until the absorbance at 600 nm reached 0.8. […]
# Phase-contrast light and fluorescence microscopy
# The light and fluorescence microscopy experiments were performed using an Eclipse TE2000- U (Nikon Inc.) op-tical microscope with a Nikon Plan Fluor 20x objective (NA 0.45 WD 7.4) coupled to an TIS DMK 23UX249 camera. […] Fluorescence microscopy experiments were performed using 6-carboxyfluorescein- l abel ed LL- III (FAM-LL-III) exciting at 488 nm. […]
substance,measurement,setting,value
NH2-VNWKKIL GKIIKVVK -CONH2 [LL‐III],fibrils by AFM,200 μM LL-III,some fibrils of smaller size were still visible after drying
same,fibrils by AFM,500 μM LL-III,fibrillar structures could no longer be detected
